Test results as given in paper PMC7108868, “Agonist-mediated switching of ion selectivity in TPC2 differentially promotes lysosomal function” (eLife, 2020).
Read-outs that look alike come from different tables or passages of the source.

Experiments:
Assay type in all cases: cell-based
TPC2 [1] = biological target: T1, TPC2 (Homo sapiens, UniProt Q8NHX9, L11A/L12A); experiment: Fura-2 Ca2+ imaging, block of TPC2-A1-N response at […]
T1 construct: gene TPCN2; hTPC2^L11A/L12A (plasma membrane targeted)

TPC2 [2] = biological target: T2, TPC2 (Mus musculus, UniProt Q8BWC0); experiment: GCaMP Ca2+ imaging and endo-lysosomal patch-clamp, […]; parameters: gene Tpcn2; MmTPC2-GCaMP6s; mTPC2
TPC2 [3] = biological target: T3, TPC2 (Homo sapiens, UniProt Q8NHX9); experiment: endo-lysosomal patch-clamp (also FLIPR Ca2+ assay, EC50 […])
T3 construct: gene TPCN2; hTPC2, C-terminal YFP

TPC2 [4] = biological target: T2, TPC2; experiment: endo-lysosomal patch-clamp, […], with TPC2 KO control; parameters: gene Tpcn2; mTPC2; endogenous TPC2 in alveolar macrophages
TPC2 [5] = biological target: T3, TPC2; experiment: endo-lysosomal patch-clamp (also FLIPR Ca2+ assay, EC50 […]); remark: listed apart in the source

T1 sequence (Q8NHX9 whole entry L11A/L12A): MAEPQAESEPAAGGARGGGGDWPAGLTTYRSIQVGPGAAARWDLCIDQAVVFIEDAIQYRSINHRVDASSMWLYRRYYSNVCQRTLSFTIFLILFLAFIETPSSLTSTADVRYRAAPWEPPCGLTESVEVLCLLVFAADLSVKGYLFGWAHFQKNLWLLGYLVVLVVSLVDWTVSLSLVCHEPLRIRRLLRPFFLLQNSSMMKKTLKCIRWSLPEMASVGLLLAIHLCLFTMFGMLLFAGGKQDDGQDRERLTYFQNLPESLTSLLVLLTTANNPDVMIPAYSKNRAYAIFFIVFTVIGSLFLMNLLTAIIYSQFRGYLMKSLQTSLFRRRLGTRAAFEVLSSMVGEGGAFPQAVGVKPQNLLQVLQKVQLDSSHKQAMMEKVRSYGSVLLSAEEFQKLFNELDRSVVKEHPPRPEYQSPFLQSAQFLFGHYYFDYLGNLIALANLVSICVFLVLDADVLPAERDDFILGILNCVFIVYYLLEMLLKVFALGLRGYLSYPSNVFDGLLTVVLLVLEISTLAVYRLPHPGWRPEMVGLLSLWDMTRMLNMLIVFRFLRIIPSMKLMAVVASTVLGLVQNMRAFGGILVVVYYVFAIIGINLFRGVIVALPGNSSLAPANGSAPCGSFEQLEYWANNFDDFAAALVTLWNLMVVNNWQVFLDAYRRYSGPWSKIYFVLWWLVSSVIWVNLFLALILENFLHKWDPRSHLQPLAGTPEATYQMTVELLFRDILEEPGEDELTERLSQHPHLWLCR
T3 sequence (Q8NHX9 whole entry): as the sequence (Q8NHX9 whole entry L11A/L12A) above, with A11L, A12L counted along it
T2 sequence (Q8BWC0 whole entry): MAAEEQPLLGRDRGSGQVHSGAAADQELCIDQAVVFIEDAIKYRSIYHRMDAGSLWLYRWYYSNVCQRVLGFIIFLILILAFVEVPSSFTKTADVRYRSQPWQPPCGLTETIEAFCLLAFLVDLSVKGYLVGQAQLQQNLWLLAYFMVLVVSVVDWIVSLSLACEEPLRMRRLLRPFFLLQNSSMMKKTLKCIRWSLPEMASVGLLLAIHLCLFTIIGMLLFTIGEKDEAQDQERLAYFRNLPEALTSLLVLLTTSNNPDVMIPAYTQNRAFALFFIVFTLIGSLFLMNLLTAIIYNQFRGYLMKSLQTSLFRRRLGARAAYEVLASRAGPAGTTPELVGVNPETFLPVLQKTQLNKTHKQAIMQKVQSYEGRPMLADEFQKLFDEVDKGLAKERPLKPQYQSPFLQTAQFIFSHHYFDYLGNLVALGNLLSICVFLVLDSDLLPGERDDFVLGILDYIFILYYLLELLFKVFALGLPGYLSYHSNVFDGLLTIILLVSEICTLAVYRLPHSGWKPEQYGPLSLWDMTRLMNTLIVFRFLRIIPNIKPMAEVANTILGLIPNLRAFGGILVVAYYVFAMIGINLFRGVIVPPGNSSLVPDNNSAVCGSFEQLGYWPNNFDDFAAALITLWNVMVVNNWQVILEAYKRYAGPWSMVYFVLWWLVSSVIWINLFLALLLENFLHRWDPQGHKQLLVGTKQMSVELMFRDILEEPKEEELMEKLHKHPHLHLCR

In the case of OCCN1CCN(CCCN2c3ccccc3Sc3ccc(C(F)(F)F)cc32)CC1 [Flu, fluphenazine], the “Fura-2 Ca2+ imaging, block of TPC2-A1-N response at 10 μM” value (“Fura-2 Ca2+ imaging, block” for short) (TPC2 [1]) is reported as “responses to TPC2-A1-N were selectively blocked by the recently identified TPC2 blockers tetrandrine (Tet), raloxifene (Ral), and fluphenazine (Flu)”.

With O=C(c1ccc(OCCN2CCCCC2)cc1)c1c(-c2ccc(O)cc2)sc2cc(O)ccc12 [Ral, raloxifene] the “Fura-2 Ca2+ imaging, block” value (TPC2 [1]) was “responses to TPC2-A1-N were selectively blocked by the recently identified TPC2 blockers tetrandrine (Tet), raloxifene (Ral), and fluphenazine (Flu)”.

In the case of N#CC(C(=O)Nc1ccc(C(F)(F)F)cc1)=C(O)c1cc(Cl)cc(Cl)c1 [TPC2-A1-N, 2-Cyano-3-(3,5-dichlorophenyl)−3-hydroxy-N-(4-(trifluoromethyl)phenyl)acrylamide], the “GCaMP Ca2+ imaging and endo-lysosomal patch-clamp, 10 μM” value (TPC2 [2]) is reported as “mouse TPC2 fused to GCaMP6 (MmTPC2^GCaMP) confirmed that TPC2-A1-N evoked larger responses than TPC2-A1-P” and the EC50 (TPC2 [3]) is reported as 600 nM.

For Cc1c(C(=O)O)cc(-c2cc(Br)ccc2OC(F)(F)F)n1CC1CCCCC1 [TPC2-A1-P, 5-(5-Bromo-2-(trifluoromethoxy)phenyl)−1-(cyclohexylmethyl)−2-methyl-1H-pyrrole-3-carboxylic acid], the “endo-lysosomal patch-clamp, 10 μM, with TPC2 KO control” value (TPC2 [4]) was “both TPC2-A1-N and TPC2-A1-P evoked measurable endogenous TPC2-like currents in macrophages from wild-type animals” and the EC50 (TPC2 [5]) was 600 nM.

For COc1ccc2cc1Oc1ccc(cc1)C[C@H]1c3cc(c(OC)cc3CCN1C)Oc1c(OC)c(OC)cc3c1[C@H](C2)N(C)CC3 [Tet, tetrandrine], the “Fura-2 Ca2+ imaging, block” value (TPC2 [1]) was “responses to TPC2-A1-N were selectively blocked by the recently identified TPC2 blockers tetrandrine (Tet), raloxifene (Ral), and fluphenazine (Flu)”.
